# Reference: patent US5567704A, “R-enatiomerically pure hydroxylated xanthine compounds to treat baldness” (priority 1995, dated 1996)
# Legend:
# U937 cells = assay: adhesion of IL-1α activated U937 cells to HUVEC; assay type: cell-based, human; conditions: 250 μM pre-treatment of U937 cells, FIG. 22
# Protocol: (§1) Murine peritoneal exudate cell macrophages (PEC) were isolated by perfusion of mouse peritoneum and plated into 96-well trays at 5×10^5 cells per well. Cells were stimulated with 5 μg/ml Salmonella abortus equi -derived endotoxin (LPS; Sigma Chemical Co., L-1887) or […] IL-1α (Genzyme; Cambridge, Mass.) with or without the addition of CT1501R added to the cultures one hour prior to addition of the stimulus. At various times thereafter, supernatants were removed and levels of either TNF-α or IL-1α were assayed using commercial 96-well microtiter immunoassay kits (Genzyme; TNF; Endogen, Boston, Mass.; IL-1α) according to manufacturer's specifications. For the adhesion studies, early passage human umbilical vein endothelial cells (HUVEC) were obtained. from commercial suppliers (Clonetics, San Diego, Calif. or Cell Systems, Seattle, Wash.) and cultured in defined, Hepes buffered, serum free medium (Cell Systems, cat 301-180) supplemented with acidic FGF (Cell Systems cat 401-111). 4000 cells were plated into each well of a 96-well microtiter plate and allowed to incubate for 72 hrs at 37° C. […] After addition of […] Hanks Balanced Salt Solution (HBSS), the microtiter plate was then analyzed on a Millipore Cytofluor fluorescent plate reader (excitation 488 nm; emission 525 nm). […]
# [1] = system: TNF-α release from IL-1α activated PEC; assay: TNF-α release from IL-1α-activated peritoneal macrophages (ELISA); assay type: cell-based, murine; conditions: Mus musculus, Peritoneal macrophage, 50 ng/ml IL-1α, 24, 48 or 72 hrs, FIG. 20, read-out: inhibition of induced levels of TNF-α
# Protocol: as §1
# nu/nu mice = assay: nude mouse hair studies, topical application; assay type: in vivo
# From the text: This example illustrates nude mouse hair studies involving topical application of CT1501R. Six to eight week old, female, nu/nu mice from Charles River Laboratories were housed at Biosupport Research Support Services (Seattle, Wash.) in autoclaved micro isolator units with hyperchlorinated autoclaved water, irradiated rodent chow and kept under a laminar flow hood. Caging was changed weekly, and water was changed twice weekly. The mice were acclimated for 5 days before beginning each study.
# The first topical formulation was prepared by adding CT1501R to a heated hydrophilic ointment (USP) at a 1% concentration, and allowed to solidify.
# Nude mice were painted twice daily for 16 days with the first topical formulation of CT1501R on the left flank and another compound in the same base on the right flank with sterile applicators. Mice were handled under the laminar flow hood with applicator wearing face mask and sterile gloves. After 16 days, one mouse was sacrificed by cervical dislocation and skin biopsies were taken of the treated areas of the shoulder/flank and from the non-treated area of the dorsal pelvis (rump). Specimens were placed in 10% buffered formalin solution. Biopsies were sent to a veterinary dermopathologist for histopathology. Six weeks following treatment, a second mouse was euthanatized and biopsied the same as the first. Samples were sent for histopathology.
# In a second experiment, topical application of CT1501R was performed along with a commercial topical minoxidil preparation (Rogaine®, Upjohn) that is approved for a hair growth indication. Five to six week old, female, nu/nu mice from Bantin and Kingman Universal were housed at Biosupport Research Support Services (Seattle, Wash.) in autoclaved micro isolator units with hyper chlorinated autoclaved water, irradiated rodent chow and kept under a laminar flow hood. Caging was changed weekly, and water was changed twice weekly. Mice were acclimated for 7 days before beginning study.
# CT1501R, and two other compounds were prepared in a topical formulation of 60% ETOH, 10% water and 30% PEG along with vehicle only. Minoxidil was purchased as the commercial preparation Rogaine® from a local pharmacy. Rogaine® is sold in the same formulation base. Mice were identified by unique tail markings specific for each test article. Two mice per group were treated with CT1501R and another compound. One mouse was treated with each of vehicle and minoxidil. The mice were handled under the laminar flow hood with the applicator wearing face mask and sterile gloves. Each mouse was treated twice daily with a separate sterile applicator to avoid contamination of the solutions or the mice. All mice were applied a strip of appropriate test article along the center line of the back from the base of the skull to the base of the tail, approximately 1.5 cm wide. After 34 days all mice were euthanatized by overdose of halothane anesthesia. Skin biopsies were taken from each of the 7 mice over the nape of the neck between the scapulas (approximate size was 1×1.5 cm). All specimens were blotted on gauze to remove blood and fluids, affixed to a cut piece of wooden tongue depressor, and placed specimen side down in separately marked containers with 10% buffered formalin. Specimens were shipped to a veterinary dermatopathologist for qualitative histopathological determinations.
# [2] = first experiment, 1% in hydrophilic ointment, twice daily 16 days
compound,measurement,setting,value
"C[C@@H](O)CCCCn1c(=O)c2c(ncn2C)n(C)c1=O [CT1501R, (R)-1-(5-hydroxyhexyl)-3,7-dimethylxanthine]",IL-1α mediated increase in adhesion of U937 cells to HUVEC,U937 cells,effectively blocked the IL-1α mediated increase in adhesion to HUVEC to near background levels
same,inhibition at 250 µM,[1],50 to 70%
same,"hair follicles, histopathology",nu/nu mice; [2],significantly more normal appearing hair follicles than the non treated sections
same,"hair shafts, histopathology",nu/nu mice; [2],Numerous hair shafts were seen exiting the follicles in the treated sections
same,hair growth promotion compared with minoxidil,nu/nu mice; second experiment,at least as good at promoting hair growth in this model as minoxidil
same,visual inspection of hair,"nu/nu mice; second experiment, group of CT1501R, minoxidil and control","most ""hairy"""
same,"hair follicles, subjective histopathological examination","nu/nu mice; second experiment, topical twice daily, 34 days",greatest concentration of hair folicles
